# According to patent publication US20030224024A1, “Compositions comprising cyclopentane derivatives and their use” (priority 2002, published 2003):
# Experiments:
# isolated stratum corneum [1] = assay: Keratolytic power, Test 1: counting corneocytes released from patches of isolated stratum corneum; format: cell-based; conditions: 1% by weight solution in PBS + 0.1% Triton X100, pH 7.4, 37° C., 24 hours
# Experimental: (§1) The keratolytic power of a number of compounds of the disclosure was studied. This test comprises counting corneocytes released following incubation of patches of isolated stratum corneum in the presence of the test compounds.
# (§2) Stratum corneum isolated by trypsin/heat from surgical plasties was used. A number of different stratum corneum samples were used. Discs of 4 mm in diameter were punched out and placed at the bottom of a 96-well plate.
# A 1% by weight solution of the compound of Example 1, or (1R,2R)-3-oxo-2-(2Z)pentylcyclopentaneacetic acid (comparative), was prepared in a PBS buffer supplemented with 0.1% of Triton X100. The pH of the solution was adjusted to 7.4.
# 50 microlitres of test solution or of control solution (PBS buffer supplemented with 0.1% of Triton:X100) were added to each well. Incubation was carried out at 37° C. with stirring for 24 hours.
# (§3) 10 microlitres of solution were then withdrawn and were placed in a Malassez cell. The liberated corneocytes were counted under the microscope.
# The results obtained are as follows, expressed as the number of liberated corneocytes per microlitre, averaged over three tests. Corneocyte fragments were not counted.
# isolated stratum corneum [2] = assay: Keratolytic power, Test 2: counting corneocytes released from patches of isolated stratum corneum; format: cell-based; conditions: 1% by weight solution in PBS + 0.1% Triton X100, pH 7.4, 37° C., 24 hours; for number of liberated corneocytes per microlitre, Sample 1 (3 tests): Test 2, Sample 1, average over three tests; for number of liberated corneocytes per microlitre, Sample 2 (3 tests): Test 2, Sample 2, average over three tests; for number of liberated corneocytes per microlitre, Average: Test 2, average of Samples 1 and 2
# Experimental: as §1, §2
# A 1% by weight solution of the compound of Example 1 or salicylic acid, was prepared in a PBS buffer supplemented with 0.1% of Triton X100. The pH of the solution was adjusted to 7.4.
# 50 microlitres of test solution or of control solution (PBS buffer supplemented with 0.1% of Triton X100) were added to each well. Incubation was carried out at 37° C. with stirring for 24 hours.
# as §3
# The results obtained are as follows, expressed as the number of liberated corneocytes per microlitre. Corneocyte fragments were not counted.
Compound,"number of liberated corneocytes per microlitre, Average (3 tests per sample, 3 different samples) (isolated stratum corneum [1])","number of liberated corneocytes per microlitre, Sample 1 (3 tests) (isolated stratum corneum [2])","number of liberated corneocytes per microlitre, Sample 2 (3 tests) (isolated stratum corneum [2])","number of liberated corneocytes per microlitre, Average (isolated stratum corneum [2])"
"CC/C=C\C[C@H]1C(=O)CC[C@@H]1CC(=O)O [Comparative, (1R,2R)-3-oxo-2-(2Z)pentylcyclopentaneacetic acid]",12 ± 4 liberated corneocytes per microlitre,,,
"CC/C=C\C[C@H]1C(=O)CC[C@@H]1CC(=O)O (racemic) [Example 1, (±)(1R,2R)-3-oxo-2-[(2Z)-2-pentenyl]cyclopentaneacetic acid]",15 ± 5 liberated corneocytes per microlitre,80 ± 4 liberated corneocytes per microlitre,64 ± 11 liberated corneocytes per microlitre,72 ± 7 liberated corneocytes per microlitre
"O=C(O)c1ccccc1O [Salicylic acid, salicylic acid]",,33 ± 20 liberated corneocytes per microlitre,21 ± 8 liberated corneocytes per microlitre,27 ± 14 liberated corneocytes per microlitre
